According to patent US9006243B2, “HIV inhibiting 6-substituted pyrimidines” (Janssen R&D Ireland, priority 2006, dated 2015):
Like-named read-outs stand apart in the source and are kept apart here.

Tests used:
Assay in all cases: microbe, parasite or virus in culture
[1] = tested on: HIV strain Y181C; type: cell-based, HIV-1; conditions: for Y181C pEC50 (−log EC50): HIV strain Y181C, MT4 LTR-EGFP cells, three days after infection; for EC50: Human immunodeficiency virus 1, 72 h, read-out: Y181C pEC50 (−log EC50) (converted)
Description: (§1) Image analysis allows very sensitive detection of viral infection.

[2] = tested on: HIV strain K103N + Y181C; type: cell-based, HIV-1; conditions: for K103N + Y181C pEC50 (−log EC50): HIV strain K103N + Y181C, MT4 LTR-EGFP cells, three days after infection; for EC50: Human immunodeficiency virus 1, 72 h, read-out: K103N + Y181C pEC50 (−log EC50) (converted)
Description: as §1

[3] = tested on: HIV strain L100I + K103N; type: cell-based, HIV-1; conditions: for L100I + K103N pEC50 (−log EC50): HIV strain L100I + K103N, MT4 LTR-EGFP cells, three days after infection; for EC50: Human immunodeficiency virus 1, 72 h, read-out: L100I + K103N pEC50 (−log EC50) (converted)
Description: as §1

[4] = tested on: HIV strain IIIB (wild type); conditions: for EC50: Human immunodeficiency virus 1, IIIB, 72 h, read-out: IIIB pEC50 (−log EC50) (converted)
Method: Compounds of the invention were tested for their potency against wild type virus and clinically isolated HIV strains harboring one or more mutations associated with resistance to reverse transcriptase inhibitors. Antiviral activity was evaluated using a cellular assay performed according to the following procedure.
The human T-cell line MT4 was engineered with Green Fluorescent Protein (GFP) and a HIV-specific promoter, HIV-1 long terminal repeat (LTR). This cell line, designated MT4 LTR-EGFP, can be used for the in vitro evaluation of anti-HIV activity of investigational compounds. In HIV-1 infected cells, the Tat protein is produced, which upregulates the LTR promotor and eventually leads to stimulation of the GFP reporter production, allowing to measure ongoing HIV-infection fluorometrically.
Analogously, MT4 cells were engineered with GFP and the constitutional cytomegalovirus (CMV) promotor. […] Cytotoxic investigational compounds reduce GFP levels of mock-infected MT4 CMV-EGFP cells.
The ratio of CC50 to EC50 is defined as the selectivity index (SI) and is an indication of the selectivity of the anti-HIV activity of the inhibitor. The ultimate monitoring of HIV-1 infection and cytotoxicity was done using a scanning microscope. Image analysis allows very sensitive detection of viral infection. Measurements were done before cell necrosis, which usually takes place about five days after infection, in particular measurements were performed three days after infection.
The columns IIIB, L100I, etc. in the table list the pEC50 (−log EC50) values against various strains IIIB, L100I, etc.; pSI lists the −log SI values.
Strain IIIB is wild type HIV strain.

[5] = molecular target: HIV strain MDR (L100I, K103N, Y181C, E138G, V179I, L2214F, V278V/I and A327A/V in HIV reverse transcriptase); type: cell-based, HIV-1; conditions: for MDR pEC50 (−log EC50): MDR HIV strain (multiple RT mutations), MT4 LTR-EGFP cells, three days after infection; for EC50: Human immunodeficiency virus 1, 72 h, read-out: MDR pEC50 (−log EC50) (converted)
Description: as §1
“MDR” refers to a strain that contains mutations L100I, K103N, Y181C, E138G, V179I, L2214F, V278V/I and A327A/V in HIV reverse transcriptase.

[6] = wild type HIV strain IIIB, MT4 LTR-EGFP cells, GFP fluorescence, three days after infection

SMILES: Cc1cc(C=CC#N)cc(C)c1Nc1cc(CN2CCOCC2)nc(Nc2ccc(C#N)cc2)n1 (mixture of isomers) [Compound 12]
- Y181C pEC50 (−log EC50) [1]: 7.28
- K103N + Y181C pEC50 (−log EC50) [2]: 6.78
- L100I + K103N pEC50 (−log EC50) [3]: 6.50
- IIIB pEC50 (−log EC50) [4]: 8.62
- MDR pEC50 (−log EC50) [5]: 5.57

SMILES: Cc1cc(C=CC#N)cc(C)c1Nc1cc(CNCC2CC2)nc(Nc2ccc(C#N)cc2)n1 (mixture of isomers) [Compound 14]
- Y181C pEC50 (−log EC50) [1]: 7.85
- K103N + Y181C pEC50 (−log EC50) [2]: 7.76
- L100I + K103N pEC50 (−log EC50) [3]: 7.00
- IIIB pEC50 (−log EC50) [4, 6]: 8.52
- MDR pEC50 (−log EC50) [5]: 5.67

SMILES: COCCNCc1cc(Nc2c(C)cc(C=CC#N)cc2C)nc(Nc2ccc(C#N)cc2)n1 (mixture of isomers) [Compound 15]
- Y181C pEC50 (−log EC50) [1]: 7.89
- K103N + Y181C pEC50 (−log EC50) [2]: 7.86
- L100I + K103N pEC50 (−log EC50) [3]: 7.42
- IIIB pEC50 (−log EC50) [4, 6]: 8.54
- MDR pEC50 (−log EC50) [5]: 5.55

SMILES: Cc1cc(C=CC#N)cc(C)c1Nc1cc(CNCC2COC(C)(C)O2)nc(Nc2ccc(C#N)cc2)n1 (mixture of isomers) [Compound 16]
- Y181C pEC50 (−log EC50) [1]: 7.60
- K103N + Y181C pEC50 (−log EC50) [2]: 7.61
- L100I + K103N pEC50 (−log EC50) [3]: 7.06
- IIIB pEC50 (−log EC50) [4]: 8.54
- MDR pEC50 (−log EC50) [5]: 5.64

SMILES: Cc1cc(C=CC#N)cc(C)c1Nc1cc(CNCCc2ccc(S(N)(=O)=O)cc2)nc(Nc2ccc(C#N)cc2)n1 (mixture of isomers) [Compound 17]
- Y181C pEC50 (−log EC50) [1]: 7.01
- K103N + Y181C pEC50 (−log EC50) [2]: 7.04
- L100I + K103N pEC50 (−log EC50) [3]: 6.41
- IIIB pEC50 (−log EC50) [4, 6]: 7.80
- MDR pEC50 (−log EC50) [5]: 5.56

SMILES: CON(C)Cc1cc(Nc2c(C)cc(C=CC#N)cc2C)nc(Nc2ccc(C#N)cc2)n1 (mixture of isomers) [Compound 18]
- Y181C pEC50 (−log EC50) [1]: 8.06
- K103N + Y181C pEC50 (−log EC50) [2]: 7.79
- L100I + K103N pEC50 (−log EC50) [3]: 7.48
- IIIB pEC50 (−log EC50) [4, 6]: 9.05
- MDR pEC50 (−log EC50) [5]: 6.33

SMILES: Cc1cc(C=CC#N)cc(C)c1Nc1cc(Cn2ccnc2)nc(Nc2ccc(C#N)cc2)n1 (mixture of isomers) [Compound 19]
- Y181C pEC50 (−log EC50) [1]: 7.68
- K103N + Y181C pEC50 (−log EC50) [2]: 6.97
- L100I + K103N pEC50 (−log EC50) [3]: 6.83
- IIIB pEC50 (−log EC50) [4, 6]: 8.48
- MDR pEC50 (−log EC50) [5]: 5.32

SMILES: Cc1cc(C=CC#N)cc(C)c1Nc1cc(CNCCc2ccccn2)nc(Nc2ccc(C#N)cc2)n1 (mixture of isomers) [Compound 20]
- Y181C pEC50 (−log EC50) [1]: 6.99
- K103N + Y181C pEC50 (−log EC50) [2]: 6.96
- L100I + K103N pEC50 (−log EC50) [3]: 6.33
- IIIB pEC50 (−log EC50) [4, 6]: 8.46
- MDR pEC50 (−log EC50) [5]: 5.30

SMILES: CC(=O)NCCNCc1cc(Nc2c(C)cc(C=CC#N)cc2C)nc(Nc2ccc(C#N)cc2)n1 (mixture of isomers) [Compound 22]
- Y181C pEC50 (−log EC50) [1]: 7.09
- K103N + Y181C pEC50 (−log EC50) [2]: 7.02
- L100I + K103N pEC50 (−log EC50) [3]: 6.35
- IIIB pEC50 (−log EC50) [4, 6]: 7.93
- MDR pEC50 (−log EC50) [5]: 5.50

SMILES: COCC(C)NCc1cc(Nc2c(C)cc(C=CC#N)cc2C)nc(Nc2ccc(C#N)cc2)n1 (mixture of isomers) [Compound 23]
- Y181C pEC50 (−log EC50) [1]: 7.72
- K103N + Y181C pEC50 (−log EC50) [2]: 7.78
- L100I + K103N pEC50 (−log EC50) [3]: 6.98
- IIIB pEC50 (−log EC50) [4, 6]: 8.80
- MDR pEC50 (−log EC50) [5]: 5.67

SMILES: C=CCNCc1cc(Nc2c(C)cc(C=CC#N)cc2C)nc(Nc2ccc(C#N)cc2)n1 (mixture of isomers) [Compound 24]
- Y181C pEC50 (−log EC50) [1]: 8.14
- K103N + Y181C pEC50 (−log EC50) [2]: 7.84
- L100I + K103N pEC50 (−log EC50) [3]: 7.31
- IIIB pEC50 (−log EC50) [4]: 9.16
- MDR pEC50 (−log EC50) [5]: 5.75

SMILES: Cc1cc(C=CC#N)cc(C)c1Nc1cc(CNCc2ccccn2)nc(Nc2ccc(C#N)cc2)n1 (mixture of isomers) [Compound 25]
- Y181C pEC50 (−log EC50) [1]: 7.03
- K103N + Y181C pEC50 (−log EC50) [2]: 7.30
- IIIB pEC50 (−log EC50) [4, 6]: 7.63
- MDR pEC50 (−log EC50) [5]: 5.75

SMILES: Cc1cc(C=CC#N)cc(C)c1Nc1cc(CNCc2ccco2)nc(Nc2ccc(C#N)cc2)n1 (mixture of isomers) [Compound 26]
- Y181C pEC50 (−log EC50) [1]: 7.62
- K103N + Y181C pEC50 (−log EC50) [2]: 8.07
- IIIB pEC50 (−log EC50) [4, 6]: 8.43
- MDR pEC50 (−log EC50) [5]: 5.57

SMILES: Cc1cc(C=CC#N)cc(C)c1Nc1cc(CNCC2CCCO2)nc(Nc2ccc(C#N)cc2)n1 (mixture of isomers) [Compound 28]
- Y181C pEC50 (−log EC50) [1]: 7.81
- K103N + Y181C pEC50 (−log EC50) [2]: 7.82
- L100I + K103N pEC50 (−log EC50) [3]: 7.27
- IIIB pEC50 (−log EC50) [4, 6]: 8.68
- MDR pEC50 (−log EC50) [5]: 5.68

SMILES: Cc1cc(C=CC#N)cc(C)c1Nc1cc(CNCCCN2CCOCC2)nc(Nc2ccc(C#N)cc2)n1 (mixture of isomers) [Compound 29]
- Y181C pEC50 (−log EC50) [1]: 7.06
- K103N + Y181C pEC50 (−log EC50) [2]: 7.01
- L100I + K103N pEC50 (−log EC50) [3]: 6.66
- IIIB pEC50 (−log EC50) [4, 6]: 7.70
- MDR pEC50 (−log EC50) [5]: 5.67

SMILES: Cc1cc(C=CC#N)cc(C)c1Nc1cc(CNCc2ccncc2)nc(Nc2ccc(C#N)cc2)n1 (mixture of isomers) [Compound 30]
- Y181C pEC50 (−log EC50) [1]: 7.69
- K103N + Y181C pEC50 (−log EC50) [2]: 7.89
- L100I + K103N pEC50 (−log EC50) [3]: 7.56
- IIIB pEC50 (−log EC50) [4, 6]: 8.55
- MDR pEC50 (−log EC50) [5]: 5.80

SMILES: Cc1cc(C=CC#N)cc(C)c1Nc1cc(CNCc2cccs2)nc(Nc2ccc(C#N)cc2)n1 (mixture of isomers) [Compound 31]
- Y181C pEC50 (−log EC50) [1]: 7.48
- K103N + Y181C pEC50 (−log EC50) [2]: 7.71
- L100I + K103N pEC50 (−log EC50) [3]: 7.13
- IIIB pEC50 (−log EC50) [4, 6]: 8.41
- MDR pEC50 (−log EC50) [5]: 5.48

SMILES: C=CCOCc1cc(Nc2c(C)cc(/C=C/C#N)cc2C)nc(Nc2ccc(C#N)cc2)n1 [Compound 2]
- Y181C pEC50 (−log EC50) [1]: 7.74
- K103N + Y181C pEC50 (−log EC50) [2]: 7.15
- L100I + K103N pEC50 (−log EC50) [3]: 7.12
- IIIB pEC50 (−log EC50) [4, 6]: 8.44
- MDR pEC50 (−log EC50) [5]: 4.95

SMILES: COc1ccccc1C(O)c1cc(Nc2c(C)cc(/C=C/C#N)cc2C)nc(Nc2ccc(C#N)cc2)n1 (stereo not drawn) [Compound 3]
- EC50 [1]: 0.105 µM
- EC50 [2]: 0.263 µM
- EC50 [3]: 0.0955 µM
- EC50 [4]: 0.00724 µM
- EC50 [5]: 2.95 µM

SMILES: Cc1cc(/C=C/C#N)cc(C)c1Nc1cc(C(=O)c2nccs2)nc(Nc2ccc(C#N)cc2)n1 [Compound 10]
- EC50 [1]: 0.00347 µM
- EC50 [2]: 0.0107 µM
- EC50 [3]: 0.00479 µM
- EC50 [4]: 0.00282 µM
- EC50 [5]: 0.562 µM

SMILES: Cc1cc(/C=C/C#N)cc(C)c1Nc1cc(CNCc2cccnc2)nc(Nc2ccc(C#N)cc2)n1 [Compound 27]
- EC50 [1]: 0.0162 µM
- EC50 [2]: 0.00309 µM
- EC50 [4]: 0.0038 µM
- EC50 [5]: 1.17 µM
